Reference: US20250154686A1, “COMPOUND LIBRARY” (CHUGAI SEIYAKU KABUSHIKI KAISHA, priority 2021, published 2025)

Target: T1, Bcl-2 protein (Recombinant Human Bcl-2 Protein) (Homo sapiens, UniProt P10415)
T1 construct: purchased Novus Biologicals NBP2-34889
Test: AS-MS evaluation of binding of the Example 4 mixture library (1200 compounds/well) to Bcl-2, ASMS ratio (%)
Details: mixture library, value belongs to the MS peak assigned to the compound; for ASMS ratio (%) n = 1: replicate n = 1; for ASMS ratio (%) n = 2: replicate n = 2
Method in brief: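 ASMS ratio (%) derived from reverse-phase LC/MS of three samples: Bcl-2 (20 μM) incubation after SEC, protein-free standard without SEC, and protein-free blank after SEC. Compounds were pooled at 1200/well, 20 nM each, incubated 1 h, 23 °C, dark, in Tris-HCl pH 7.4 buffer with Tween-20 and DTT.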

T1 sequence (P10415 whole entry): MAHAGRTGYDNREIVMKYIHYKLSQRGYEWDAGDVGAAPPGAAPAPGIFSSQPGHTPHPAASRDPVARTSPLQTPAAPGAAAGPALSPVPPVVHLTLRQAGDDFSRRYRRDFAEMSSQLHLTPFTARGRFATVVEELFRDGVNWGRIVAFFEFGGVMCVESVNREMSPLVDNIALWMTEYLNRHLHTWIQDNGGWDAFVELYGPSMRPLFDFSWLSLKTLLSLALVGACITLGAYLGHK

ASMS ratio (%) n = 1 [%] | ASMS ratio (%) n = 2 [%] | Compound
1.4 | 0.0 | CCOc1cccc(-c2cc(CN3CCN(c4ccc(C(=O)NS(C)(=O)=O)nn4)CC3)cc(OC(F)(F)F)c2)c1 [Compound B2I089-01, 6-[4-[[3-(3-Ethoxyphenyl)-5-(trifluoromethoxy)phenyl]methyl]piperazin-1-yl]-N-methylsulfonylpyridazine-3-carboxamide]
0.0 | 0.0 | CCOc1cncc(-c2cc(CN3CCN(c4ccc(C(=O)NS(C)(=O)=O)nn4)CC3)cc(OC(F)(F)F)c2)c1 [Compound B2I090-01, 6-[4-[[3-(5-Ethoxypyridin-3-yl)-5-(trifluoromethoxy)phenyl]methyl]piperazin-1-yl]-N-methylsulfonylpyridazine-3-carboxamide]
2.6 | 0.3 | CCOc1cncc(-c2ccc(CN3CCN(c4ccc(C(=O)NS(C)(=O)=O)nn4)CC3)c3ccccc23)c1 [Compound B2I092-01, 6-[4-[[4-(5-Ethoxypyridin-3-yl)naphthalen-1-yl]methyl]piperazin-1-yl]-N-methylsulfonylpyridazine-3-carboxamide]
0.0 | 0.0 | CCOc1cncc(-c2csc(CN3CCN(c4ccc(C(=O)NS(C)(=O)=O)nn4)CC3)c2)c1 [Compound B2I094-01, 6-[4-[[4-(5-Ethoxypyridin-3-yl)thiophen-2-yl]methyl]piperazin-1-yl]-N-methylsulfonylpyridazine-3-carboxamide]
0.0 | 0.0 | CCOc1cccc(C#Cc2ccccc2CN2CCN(c3ccc(C(=O)NS(C)(=O)=O)nn3)CC2)c1 [Compound B2I095-01, 6-[4-[[2-[2-(3-Ethoxyphenyl)ethynyl]phenyl]methyl]piperazin-1-yl]-N-methylsulfonylpyridazine-3-carboxamide]
0.0 | 0.0 | CCOc1cncc(C#Cc2ccccc2CN2CCN(c3ccc(C(=O)NS(C)(=O)=O)nn3)CC2)c1 [Compound B2I096-01, 6-[4-[[2-[2-(5-Ethoxypyridin-3-yl)ethynyl]phenyl]methyl]piperazin-1-yl]-N-methylsulfonylpyridazine-3-carboxamide]
0.8 | 1.4 | CCOc1cccc(-c2ccc(C(C)N3CCN(c4ccc(C(=O)NS(C)(=O)=O)cc4)CC3)cc2)c1 (centres unmarked) [Compound B2I097-01, 4-[4-[1-[4-(3-Ethoxyphenyl)phenyl]ethyl]piperazin-1-yl]-N-methylsulfonylbenzamide]
0.0 | 0.0 | CCOc1cncc(-c2ccc(C(C)N3CCN(c4ccc(C(=O)NS(C)(=O)=O)cc4)CC3)cc2)c1 (centres unmarked) [Compound B2I098-01, 4-[4-[1-[4-(5-Ethoxypyridin-3-yl)phenyl]ethyl]piperazin-1-yl]-N-methylsulfonylbenzamide]
– | 0.0 | CCOc1cccc(-c2ccc(C(C)N3CCN(c4ccc(C(=O)NS(C)(=O)=O)cc4)CC3)c(F)c2)c1 (centres unmarked) [Compound B2I099-01, 4-[4-[1-[4-(3-Ethoxyphenyl)-2-fluorophenyl]ethyl]piperazin-1-yl]-N-methylsulfonylbenzamide]
−67.5 | 0.0 | CCOc1cccc(-c2csc(C(=O)N3CCN(c4ccc(C(=O)NS(=O)(=O)C(C)(C)C)nn4)CC3)c2)c1 [Compound B2L001-01]
0.0 | 0.0 | CCOc1cncc(-c2csc(C(=O)N3CCN(c4ccc(C(=O)NS(=O)(=O)C(C)(C)C)nn4)CC3)c2)c1 [Compound B2L002-01, N-tert-Butylsulfonyl-6-[4-[4-(5-ethoxypyridin-3-yl)thiophene-2-carbonyl]piperazin-1-yl]pyridazine-3-carboxamide]
0.0 | 0.0 | CCOc1cccc(-c2ccc(C(=O)N3CCN(c4ccc(C(=O)NS(=O)(=O)C(C)(C)C)nn4)CC3)cc2C)c1 [Compound B2L003-01]
